# Assay results taken from PubChem BioAssay (NCI).
#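 96-well plates; 48 h exposure; 5 concentrations. Endpoints by linear interpolation between flanking doses. Not reached: highest tested concentration assigned. GI50 = concentration required for 50% inhibition of growth. TGI: concentration producing complete growth inhibition.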
# Key:
# Assay in all cases: inhibition of tumour cell growth, NCI panel, 48 h
# [1] = system: IGROV1 ovarian
# [2] = system: CCRF-CEM leukemia
# [3] = system: NCI/ADR-RES ovarian
# [4] = system: OVCAR-5 ovarian
# [5] = system: SN12C renal
# [6] = system: SK-MEL-28 melanoma
# [7] = system: SNB-75 CNS
# [8] = system: SW-620 colon
# [9] = system: K-562 leukemia
# [10] = system: DU-145 prostate
# [11] = system: HCT-15 colon
# [12] = system: U251 CNS
# [13] = system: NCI-H460 lung
# [14] = system: SF-268 CNS
# [15] = system: UACC-257 melanoma
# [16] = system: HS 578T breast
# [17] = system: TK-10 renal
# [18] = system: MDA-MB-435
# [19] = system: T-47D breast
# [20] = system: OVCAR-4 ovarian
# [21] = system: 786-0 renal
# [22] = system: SF-295 CNS
# [23] = system: COLO 205 colon
# [24] = system: OVCAR-3 ovarian
# [25] = system: EKVX NSCLC
# [26] = system: SK-MEL-2 melanoma
# [27] = system: CAKI-1 renal
# [28] = system: HL-60(TB) leukemia
# [29] = system: RXF 393 renal
# [30] = system: SNB-19 CNS
# [31] = system: NCI-H226 lung
# [32] = system: SR leukemia
# [33] = system: KM12 colon
# [34] = system: HCC-2998 colon
# [35] = system: M14 melanoma
# [36] = system: MALME-3M melanoma
# [37] = system: SF-539 CNS
# [38] = system: HOP-92 NSCLC
# [39] = system: MCF7 breast
# [40] = system: RPMI-8226 leukemia
# [41] = system: MDA-MB-231 breast
# [42] = system: MOLT-4 leukemia
# [43] = system: SK-OV-3 ovarian
# [44] = system: NCI-H23 lung
# [45] = system: HT29 colon
# [46] = system: HCT-116 colon
# [47] = system: UACC-62 melanoma
# [48] = system: ACHN renal
# [49] = system: SK-MEL-5 melanoma
# [50] = system: HOP-62 NSCLC
# [51] = system: A549 NSCLC
# [52] = system: PC-3 prostate
# [53] = system: OVCAR-8 ovarian
# [54] = system: A498 renal
# [55] = system: NCI-H522 lung
# [56] = system: LOX IMVI melanoma
# [57] = system: UO-31 renal
# [58] = system: BT-549 breast
smiles,measurement,setting,value
Cn1cc(-c2csc(-c3c[nH]c4ccc(F)cc34)n2)c2cccnc21,GI50,[1],0.804 µM
same,TGI,[1],> 39.9 µM
same,GI50,[2],6.26 µM
same,TGI,[2],> 100 µM
same,GI50,[3],0.45 µM
same,TGI,[3],> 100 µM
same,GI50,[4],> 69.3 µM
same,TGI,[4],> 100 µM
same,GI50,[5],10.8 µM
same,TGI,[5],> 100 µM
same,GI50,[6],11.4 µM
same,TGI,[6],> 100 µM
same,GI50,[7],2.61 µM
same,TGI,[7],40 µM
same,GI50,[8],0.749 µM
same,TGI,[8],> 100 µM
same,GI50,[9],0.416 µM
same,TGI,[9],> 100 µM
same,GI50,[10],14.3 µM
same,TGI,[10],> 100 µM
same,GI50,[11],0.737 µM
same,TGI,[11],> 100 µM
same,GI50,[12],1.52 µM
same,TGI,[12],17 µM
same,GI50,[13],0.612 µM
same,TGI,[13],> 47.4 µM
same,GI50,[14],7.73 µM
same,TGI,[14],> 93.6 µM
same,GI50,[15],3.81 µM
same,TGI,[15],> 100 µM
same,GI50,[16],> 56.6 µM
same,TGI,[16],> 100 µM
same,GI50,[17],5.08 µM
same,TGI,[17],31.6 µM
same,GI50,[18],0.194 µM
same,TGI,[18],0.586 µM
same,GI50,[19],2.33 µM
same,TGI,[19],> 73.2 µM
same,GI50,[20],12.3 µM
same,TGI,[20],> 100 µM
same,GI50,[21],13.9 µM
same,TGI,[21],> 68.4 µM
same,GI50,[22],0.755 µM
same,TGI,[22],27 µM
same,GI50,[23],1.22 µM
same,TGI,[23],> 56.4 µM
same,GI50,[24],0.62 µM
same,TGI,[24],17.5 µM
same,GI50,[25],8.87 µM
same,TGI,[25],> 100 µM
same,GI50,[26],2.78 µM
same,TGI,[26],> 29.5 µM
same,GI50,[27],1.42 µM
same,TGI,[27],> 60.8 µM
same,GI50,[28],5.85 µM
same,TGI,[28],> 100 µM
same,GI50,[29],5.65 µM
same,TGI,[29],> 70.5 µM
same,GI50,[30],6.25 µM
same,TGI,[30],65.7 µM
same,GI50,[31],5.22 µM
same,TGI,[31],> 100 µM
same,GI50,[32],0.57 µM
same,TGI,[32],> 81.2 µM
same,GI50,[33],0.704 µM
same,TGI,[33],> 100 µM
same,GI50,[34],21.9 µM
same,TGI,[34],> 100 µM
same,GI50,[35],0.787 µM
same,TGI,[35],> 100 µM
same,GI50,[36],0.236 µM
same,TGI,[36],8.35 µM
same,GI50,[37],5.41 µM
same,TGI,[37],> 59.5 µM
same,GI50,[38],4.25 µM
same,TGI,[38],> 48.9 µM
same,GI50,[39],1.69 µM
same,TGI,[39],> 68.4 µM
same,GI50,[40],> 25.4 µM
same,TGI,[40],> 100 µM
same,GI50,[41],5.79 µM
same,TGI,[41],> 100 µM
same,GI50,[42],10.6 µM
same,TGI,[42],> 100 µM
same,GI50,[43],10.5 µM
same,TGI,[43],> 74.8 µM
same,GI50,[44],11.9 µM
same,TGI,[44],> 100 µM
same,GI50,[45],0.355 µM
same,TGI,[45],3.66 µM
same,GI50,[46],0.729 µM
same,TGI,[46],> 100 µM
same,GI50,[47],1.98 µM
same,TGI,[47],> 100 µM
same,GI50,[48],8.87 µM
same,TGI,[48],> 100 µM
same,GI50,[49],1.27 µM
same,TGI,[49],> 45.3 µM
same,GI50,[50],3.11 µM
same,TGI,[50],35.2 µM
same,GI50,[51],1.09 µM
same,TGI,[51],> 45.4 µM
same,GI50,[52],6.94 µM
same,TGI,[52],> 60.3 µM
same,GI50,[53],2.99 µM
same,TGI,[53],47.3 µM
same,GI50,[54],18.6 µM
same,TGI,[54],> 100 µM
same,GI50,[55],0.463 µM
same,TGI,[55],14.7 µM
same,GI50,[56],1.45 µM
same,TGI,[56],> 100 µM
same,GI50,[57],5.37 µM
same,TGI,[57],32.2 µM
same,TGI,[58],> 100 µM
